In ChEMBL document CHEMBL1201862, “PubChem BioAssay data set” (2004):
The source made the active and inactive calls.

Key:
[1] = biological target: T1, Cytochrome P450 1A2 (Homo sapiens, UniProt P05177);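 note: PubChem cytochrome P450 panel assay, CYP1A2 panel member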
T1 sequence (P05177 whole entry): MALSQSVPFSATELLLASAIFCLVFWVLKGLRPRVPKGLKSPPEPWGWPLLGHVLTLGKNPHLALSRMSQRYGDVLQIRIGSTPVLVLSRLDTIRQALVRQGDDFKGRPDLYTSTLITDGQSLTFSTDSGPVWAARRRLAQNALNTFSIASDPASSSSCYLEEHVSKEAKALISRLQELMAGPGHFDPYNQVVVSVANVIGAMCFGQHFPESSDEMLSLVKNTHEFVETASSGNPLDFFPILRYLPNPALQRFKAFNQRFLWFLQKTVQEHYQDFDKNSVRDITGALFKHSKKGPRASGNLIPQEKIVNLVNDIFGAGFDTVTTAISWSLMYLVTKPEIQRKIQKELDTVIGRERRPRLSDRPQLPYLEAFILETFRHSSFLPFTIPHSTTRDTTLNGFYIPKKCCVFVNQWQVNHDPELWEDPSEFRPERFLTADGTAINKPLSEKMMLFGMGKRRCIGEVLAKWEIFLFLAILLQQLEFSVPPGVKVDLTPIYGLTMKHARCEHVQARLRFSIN

[2] = biological target: Cytochrome P450 2C9 (Homo sapiens, UniProt P11712)
Chain of Cytochrome P450 2C9 (P11712 whole entry): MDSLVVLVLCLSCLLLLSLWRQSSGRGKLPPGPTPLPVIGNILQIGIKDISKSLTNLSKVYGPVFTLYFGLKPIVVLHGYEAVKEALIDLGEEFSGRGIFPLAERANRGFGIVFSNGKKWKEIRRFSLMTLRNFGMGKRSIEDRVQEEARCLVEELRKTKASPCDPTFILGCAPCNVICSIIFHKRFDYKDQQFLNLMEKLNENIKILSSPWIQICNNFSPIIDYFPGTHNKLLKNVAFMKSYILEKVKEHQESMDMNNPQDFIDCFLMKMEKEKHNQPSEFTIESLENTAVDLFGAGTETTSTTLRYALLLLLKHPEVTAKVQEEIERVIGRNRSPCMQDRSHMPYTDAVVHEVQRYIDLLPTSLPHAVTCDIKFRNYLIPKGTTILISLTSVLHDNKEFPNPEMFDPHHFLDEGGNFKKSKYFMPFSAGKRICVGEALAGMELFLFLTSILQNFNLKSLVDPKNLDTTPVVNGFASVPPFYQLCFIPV

[3] = biological target: T2, Corticotropin-releasing factor receptor 2/Corticotropin-releasing factor-binding protein (Homo sapiens, UniProt P24387+Q13324); test: activators of CRF receptor 2 with binding protein – uHTS hits, confirmation (AID 602473); format: functional; conditions: read-out: EC50_Mean
T2 sequence (Q13324 whole entry): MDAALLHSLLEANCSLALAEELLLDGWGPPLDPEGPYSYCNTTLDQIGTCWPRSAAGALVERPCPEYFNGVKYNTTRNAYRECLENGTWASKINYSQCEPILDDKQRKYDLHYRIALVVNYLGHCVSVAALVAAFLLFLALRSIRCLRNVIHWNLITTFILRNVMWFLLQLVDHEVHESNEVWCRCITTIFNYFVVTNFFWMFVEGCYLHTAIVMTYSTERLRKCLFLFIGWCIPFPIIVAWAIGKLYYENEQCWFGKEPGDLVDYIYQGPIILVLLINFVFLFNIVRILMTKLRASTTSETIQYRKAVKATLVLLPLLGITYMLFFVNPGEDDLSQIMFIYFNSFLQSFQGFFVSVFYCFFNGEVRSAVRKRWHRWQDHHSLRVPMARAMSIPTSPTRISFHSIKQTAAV
T2 sequence (P24387 whole entry): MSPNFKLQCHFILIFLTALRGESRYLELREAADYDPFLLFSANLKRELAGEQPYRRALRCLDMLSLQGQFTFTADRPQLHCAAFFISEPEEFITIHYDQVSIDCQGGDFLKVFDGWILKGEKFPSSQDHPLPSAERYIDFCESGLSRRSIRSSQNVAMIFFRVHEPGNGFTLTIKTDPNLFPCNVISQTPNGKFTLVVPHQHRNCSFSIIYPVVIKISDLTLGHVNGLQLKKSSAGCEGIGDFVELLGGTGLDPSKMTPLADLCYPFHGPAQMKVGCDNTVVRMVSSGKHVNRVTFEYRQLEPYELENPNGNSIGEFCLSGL

[4] = biological target: T2, Corticotropin-releasing factor receptor 2/Corticotropin-releasing factor-binding protein; test: Dose Response confirmation of uHTS hits for small molecule antagonists of the CRF-binding protein and CRF-R2 receptor complex.; format: functional; conditions: read-out: IC50_Mean
[5] = biological target: T3, Heat shock factor protein 1 (Mus musculus, UniProt P38532); test: decrease of HSF1-responsive luciferase luminescence – cell-based, NIH3T3, dose retest, confirmation (AID 2382); format: functional;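 note: NIH3T3 fibroblasts with HSF1-driven luciferase reporter stressed by proteasome inhibitor MG132; luminescence from HSF1-driven luciferase expression after 8 hours of MG132 stress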
T3 sequence (P38532 whole entry): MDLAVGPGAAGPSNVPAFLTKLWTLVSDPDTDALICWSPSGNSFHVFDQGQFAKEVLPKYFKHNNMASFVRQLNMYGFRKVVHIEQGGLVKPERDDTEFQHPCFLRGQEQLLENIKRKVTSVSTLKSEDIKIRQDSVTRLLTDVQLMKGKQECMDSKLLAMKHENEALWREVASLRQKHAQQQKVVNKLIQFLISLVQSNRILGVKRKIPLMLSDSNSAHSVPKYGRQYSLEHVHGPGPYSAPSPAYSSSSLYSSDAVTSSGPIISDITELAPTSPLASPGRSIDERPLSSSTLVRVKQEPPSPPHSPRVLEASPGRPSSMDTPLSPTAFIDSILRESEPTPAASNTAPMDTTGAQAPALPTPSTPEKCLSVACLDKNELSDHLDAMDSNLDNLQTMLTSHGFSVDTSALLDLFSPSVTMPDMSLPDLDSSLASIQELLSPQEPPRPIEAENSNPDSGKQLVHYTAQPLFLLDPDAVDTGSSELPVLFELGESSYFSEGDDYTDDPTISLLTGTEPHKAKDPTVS

[6] = system: Streptococcus; test: GAS UMAA2166 growth inhibition – luminescence, BacTiterGlo, counter-screen for streptokinase expression inhibitor project, dose response (AID 1915); format: functional, organism-based;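 note: potency for reduction of bacterial viability or growth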
[7] = system: H4; test: Luminescence Cell-Based Dose Response HTS to Identify Activators of 5'UTR Stem-Loop Driven Prion Protein mRNA Translation in H4 Neuroglioblastoma Cells. [Related pubchem assays: 1829 (Project Summary), 1814 (Primary HTS)]; format: functional; conditions: Homo sapiens
[8] = biological target: T4, Streptokinase A (Streptococcus pyogenes serotype M1, UniProt P10520); test: viability-normalized secreted streptokinase activity reduction – plasminogen activation absorbance, OD405, dose response (AID 1914); format: functional, Streptococcus pyogenes M1 GAS;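 note: secreted streptokinase activity via plasminogen activation per viability signal from cell pellet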
T4 sequence (P10520 whole entry): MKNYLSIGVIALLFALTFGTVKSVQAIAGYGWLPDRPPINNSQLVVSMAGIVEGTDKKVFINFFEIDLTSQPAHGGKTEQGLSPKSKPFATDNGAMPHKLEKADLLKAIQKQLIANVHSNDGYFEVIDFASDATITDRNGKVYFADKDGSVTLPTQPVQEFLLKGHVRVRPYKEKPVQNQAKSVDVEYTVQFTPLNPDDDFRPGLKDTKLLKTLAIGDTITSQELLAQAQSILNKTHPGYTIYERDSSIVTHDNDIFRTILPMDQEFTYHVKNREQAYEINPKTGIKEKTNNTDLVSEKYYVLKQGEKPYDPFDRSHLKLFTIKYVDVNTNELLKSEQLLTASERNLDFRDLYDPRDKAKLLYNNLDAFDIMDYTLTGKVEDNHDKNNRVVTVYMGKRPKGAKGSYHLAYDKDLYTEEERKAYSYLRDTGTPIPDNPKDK

[9] = system: Streptococcus sp. 'group A'; test: Streptococcus pyogenes SK(-)GAS viability under kanamycin – luminescence, BacTiterGlo, confirmation, counter-screen for streptokinase expression inhibitor project, dose response (AID 1900); format: functional, organism-based
[10] = biological target: Cytochrome P450 3A4 (Homo sapiens, UniProt P08684);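 note: CYP3A4 tested as one member of a cytochrome P450 panel screen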
Chain of Cytochrome P450 3A4 (P08684 whole entry): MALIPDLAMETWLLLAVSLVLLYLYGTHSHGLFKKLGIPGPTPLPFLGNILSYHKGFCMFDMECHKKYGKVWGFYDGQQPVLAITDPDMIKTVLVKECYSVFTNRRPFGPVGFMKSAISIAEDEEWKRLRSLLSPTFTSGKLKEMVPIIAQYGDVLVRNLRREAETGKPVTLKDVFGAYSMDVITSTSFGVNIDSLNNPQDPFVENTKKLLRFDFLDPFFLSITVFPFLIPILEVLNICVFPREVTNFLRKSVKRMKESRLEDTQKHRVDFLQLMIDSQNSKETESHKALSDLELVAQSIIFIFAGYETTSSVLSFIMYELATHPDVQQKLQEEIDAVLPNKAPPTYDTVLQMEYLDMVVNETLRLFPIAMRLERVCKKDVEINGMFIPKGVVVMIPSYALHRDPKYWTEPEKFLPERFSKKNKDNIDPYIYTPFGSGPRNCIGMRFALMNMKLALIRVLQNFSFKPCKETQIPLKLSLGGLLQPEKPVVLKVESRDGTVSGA

[11] = viability of uninfected HEp-2 cells – cell-based, HTS, cytotoxicity control for RSV inhibitor project, dose response (AID 2410); format: functional; conditions: human respiratory syncytial virus
[12] = biological target: Paired box protein Pax-8 (Homo sapiens, UniProt Q06710); test: PAX8 transcriptional activity inhibition in RMG-I – RMG-I cells, luciferase, cherry-pick, dose response (AID 687027); format: functional, cell-based;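 note: luciferase reporter driven by Pax8 target thyroperoxidase promoter measured by SteadyGlo luminescence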
Chain of Paired box protein Pax-8 (Q06710 whole entry): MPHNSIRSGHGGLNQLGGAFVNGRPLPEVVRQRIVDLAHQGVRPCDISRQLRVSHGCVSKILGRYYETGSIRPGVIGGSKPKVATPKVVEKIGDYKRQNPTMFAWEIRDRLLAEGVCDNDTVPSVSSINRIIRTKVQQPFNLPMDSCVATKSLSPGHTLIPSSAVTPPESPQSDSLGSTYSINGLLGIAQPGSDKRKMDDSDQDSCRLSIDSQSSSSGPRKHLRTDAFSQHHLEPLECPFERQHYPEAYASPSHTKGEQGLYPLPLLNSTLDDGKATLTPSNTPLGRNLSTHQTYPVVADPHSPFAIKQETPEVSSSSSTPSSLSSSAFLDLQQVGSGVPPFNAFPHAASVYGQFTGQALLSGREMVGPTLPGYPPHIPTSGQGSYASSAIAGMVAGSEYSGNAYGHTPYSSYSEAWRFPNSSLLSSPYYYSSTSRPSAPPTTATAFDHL

With `COCCN1C(=O)C(O)=C(C(=O)c2cccc(OC)c2)C1c1ccc(C)o1` (configuration not stated) the AC50 [1] was 12.6 µM (inconclusive) and the AC50 [2] was 31.6 µM (inconclusive).
For `CCC(c1nnc(SCC(=O)Nc2c(F)cccc2F)n1Cc1ccccc1)N(C)C` (configuration not stated), the EC50 [3] was > 53 µM (inactive) and the IC50 [4] was > 47.1 µM (inactive).
With `Cc1nc2ccc(S(=O)(=O)NC(C(=O)NCc3cccs3)C(C)C)cc2s1` (configuration not stated) the EC50 [5] was > 195 µM (not active).
For `COc1ccc(N2CCN(S(=O)(=O)c3cc4c(cc3C)N(C(C)=O)CCO4)CC2)cc1`, the EC50 [5] was > 195 µM (not active).
For `COc1ccccc1C(=O)Nc1nnc(SCC(=O)NCC2CCCO2)s1` (configuration not stated), the EC50 [6] was > 150 µM (not active), the EC50 [7] was > 120 µM (not active) and the EC50 [8] was > 150 µM (not active). The EC50 [9] was > 150 µM (not active).
In the case of `Cn1cc(-c2nc3cnc(Oc4ccccc4)nc3n(C3CC3)c2=O)c2ccccc21`, the AC50 [1] is reported as 5.01 µM (inconclusive) and the AC50 [10] is reported as 25.1 µM (inconclusive).
With `O=C(CCC(=O)c1ccc(Br)cc1)Nc1cccnc1` the EC50 [5] was > 195 µM (not active).
With `CC(=O)Nc1ccc(OCC(=O)N2CCC(Cc3ccccc3)CC2)cc1` the CC50 [11] was 21.6 µM (active).
With `COc1ccccc1NC(=O)Nc1ccc(Cc2ccncc2)cc1` the CC50 [11] was 19.1 µM (active).
With `Cc1ccc(NC2c3ncccc3C(=O)N2Cc2ccc(F)cc2)cc1` (configuration not stated) the CC50 [11] was > 50 µM (active).
For `OC(COc1ccc(Cl)c2ccccc12)CN1CCN(c2ccccn2)CC1` (configuration not stated), the CC50 [11] was 18.3 µM (active).
In the case of `O=c1c2ccccc2c(-c2ccccc2)nn1Cc1ccc(Cl)cc1`, the AC50 [1] is reported as 0.0708 µM (inconclusive).
With `CCCCCC(=O)N1CC2(CC(c3cccc(NC(=O)CC)c3)=NO2)C[C@H]1C(N)=O` (some centres not stated) the EC50 [3] was > 53 µM (inactive) and the IC50 [4] was > 47.1 µM (inactive).
In the case of `CCCCNC(=O)C(Sc1ccccc1)c1ccccc1` (configuration not stated), the AC50 [12] is reported as 65.4 µM (active).
For `CN(C(=O)CCNC(=O)Cn1cnc2ccccc2c1=O)c1ccccc1F`, the EC50 [5] was > 195 µM (not active).
In the case of `Cc1nc(NC(C)c2ccccc2)sc1C(=O)Nc1ccccc1` (configuration not stated), the EC50 [5] is reported as > 195 µM (not active).
In the case of `Cc1ccc(NC(=O)C2CCCN2C(=O)c2cccs2)cc1C` (configuration not stated), the EC50 [3] is reported as > 53 µM (inactive) and the IC50 [4] is reported as > 47.1 µM (inactive).
In the case of `Cc1cc(Br)cc2c1N(C)C(=O)C2(c1ccc(O)cc1)c1ccc(O)cc1`, the CC50 [11] is reported as 13.8 µM (active).
With `COC(=O)N1CCC2(CCN(C(=O)NC(C)C)CC2)CC1` the AC50 [1] was 20 µM (inconclusive) and the AC50 [2] was 12.6 µM (inconclusive).
In the case of `CCOC(=O)n1ccn(C)c1=S` [CARBIMAZOLE], the AC50 [1] is reported as 12.6 µM (inconclusive).
For `Cc1ccc2[nH]c(/C(C#N)=C\c3cc(C)n(-c4cccc([N+](=O)[O-])c4)c3C)nc2c1`, the CC50 [11] was 16.6 µM (active).
With `CCn1c2ccccc2c2cc(NC(=O)C(C)Oc3ccc(OC)cc3)ccc21` (configuration not stated) the CC50 [11] was > 50 µM (active) and the AC50 [2] was 7.94 µM (inconclusive).
